The record followed here is PubChem BioAssay (NCI).

What all share (experiment): growth of human tumour cells (NCI), 48 h
Assay [1] has as its system MALME-3M melanoma.
Assay [2] concerns SNB-75 CNS.
The test system of assay [3] is CAKI-1 renal.
Assay [4] relates to OVCAR-3 ovarian.
Assay [5] concerns IGROV1 ovarian.
Assay [6] has as its system SK-MEL-2 melanoma.
In assay [7] the test system is HOP-92 NSCLC.
Assay [8] has as its system PC-3 prostate.
Assay [9] relates to BT-549 breast.
The subject of assay [10] is TK-10 renal.
For assay [11], the system named is NCI-H226 lung.
The subject of assay [12] is NCI-H522 lung.
The test system of assay [13] is MDA-MB-435.
Assay [14] concerns CCRF-CEM leukemia.
Assay [15] has as its system HOP-62 NSCLC.
Assay [16] relates to MOLT-4 leukemia.
The test system of assay [17] is NCI-H23 lung.
In assay [18] the test system is RXF 393 renal.
Assay [19] concerns EKVX NSCLC.
The test system of assay [20] is HT29 colon.

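How tested: cells in 96-well plates exposed to compound for 48 hours at five concentrations. TGI: concentration producing complete growth inhibition.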

Turning to `COc1ccc(C[C@H]2COC(=O)[C@@H]2Cc2ccc(Br)cc2)cc1OC`, the TGI in assay [1] was more than 89.5 µM; in assay [2] it was 85.1 µM; in assay [3] it was more than 84 µM; in assay [4], more than 100 µM; in assay [5], more than 92.4 µM; in assay [6], 51.8 µM. Also, the TGI is 79.5 µM in assay [7]; 52.1 µM in assay [8]; 84.2 µM in [9]; more than 94.2 µM in assay [10]; more than 85.4 µM in assay [11]; more than 71.1 µM in assay [12]. Moreover, the TGI in [13] was 55.7 µM; in [14], more than 100 µM; in [15], more than 100 µM; in [16], 61.8 µM; in [17] it was more than 100 µM; in assay [18], more than 62.8 µM. In addition, the TGI in assay [19] was 56.5 µM; in [20], more than 100 µM.

Take `COc1ccc2nc3ccc(OC)cc3c(S(=O)Cc3ccccc3)c2c1` (stereo not given): the TGI stood at 7.87 µM in assay [1]; 28.8 µM in assay [2]; 25.6 µM in assay [3]; 26.1 µM in assay [4]; 21.5 µM in [5]; 33 µM in assay [6]. Also, the TGI in assay [7] was more than 37.3 µM; in [8] it was 27.2 µM; in [9] it was 27.4 µM; in assay [10], 19.4 µM; in assay [11] it was 38.5 µM; in assay [12], 2.63 µM. For the same compound, the TGI in assay [13] was 27.8 µM; in [14] it was more than 22.1 µM; in assay [15] it was 33.4 µM; in assay [16], more than 23.6 µM; in assay [17] it was 37.5 µM; in assay [18], more than 43.5 µM. Besides, the TGI in [19] came to 30.5 µM; in [20], 10.6 µM.

For the compound `Cc1cn(C2CC(O)C(Cn3nncc3Cn3cnc4c(N)ncnc43)O2)c(=O)[nH]c1=O` (stereo not given), the TGI in assay [1], in assay [2], in assay [3], in assay [4], in [5] and in assay [6] was more than 100 µM in each case. For the same compound, the TGI in assay [7], in assay [8], in assay [9], in assay [10], in [11] and in assay [12] was more than 100 µM throughout. For the same compound, the TGI in assay [13], in [14], in [15], in [16], in [17] and in [18] was more than 100 µM each time. This compound also returned a TGI in [19] of more than 100 µM.

Regarding `C=CC(C)(C)NC(C(=O)N1CCC[C@H]1c1nc(-c2nc(C(=O)OCC=C(C)C)c(C)o2)c(C)o1)C(C)C` (stereo not given in full), the TGI in [1] is more than 100 µM; in [2] it was more than 100 µM; in [3], 99.8 µM; in assay [4], more than 100 µM; in assay [5], more than 100 µM; in assay [6], more than 73.4 µM. Further, the TGI in [7] was more than 100 µM; in assay [8], more than 100 µM; in assay [9] it was more than 100 µM; in [10], more than 100 µM; in assay [11], more than 87.7 µM; in assay [12], more than 100 µM. For the same compound, the TGI was more than 72 µM in [13]; more than 100 µM in assay [14]; more than 100 µM in assay [15]; more than 100 µM in [16]; more than 100 µM in assay [17]; more than 91.4 µM in [18]. The TGI in assay [19] is more than 90.1 µM; in [20] it was more than 86.8 µM.

Take `COc1ccc(COCC[C@H](C)OC2OC(CO[Si](C)(C)C(C)(C)C)C(O)C(O)C2O)cc1` (stereo not given in full): the TGI in assay [1], in [2], in assay [3], in assay [4], in [5] and in assay [6] was more than 100 µM each time. Moreover, the TGI in [7], in assay [8], in [9], in assay [10], in assay [11] and in assay [12] was more than 100 µM in each case. The TGI in [13], in assay [14], in assay [15], in assay [16], in [17] and in assay [18] was more than 100 µM each time. Also, the TGI in assay [19] and in assay [20] was more than 100 µM each time.

Turning to `CO[P@@]1(=O)O[C@@H](c2ccccc2)[C@H](O)[C@@]1(O)c1ccccc1`, the TGI in assay [1], in [2], in assay [3], in [4], in [5] and in [6] was more than 100 µM throughout. Besides, the TGI in assay [7], in assay [8], in assay [9], in assay [10], in assay [11] and in [12] was more than 100 µM in each case. In addition, the TGI in assay [13], in assay [14], in assay [16], in assay [17], in [18] and in assay [19] was more than 100 µM each time. This compound also gave a TGI in assay [20] of more than 100 µM.

Consider `COC1(OC)CCN(Cc2ccccc2)C1=O`, for which the TGI in assay [1] was more than 100 µM; in assay [2], 30.6 µM; in assay [3] it was 13 µM; in assay [4], 23.7 µM; in assay [5], 26.8 µM; in [6], 34 µM. For the same compound, the TGI in assay [7] is 23.4 µM; in assay [8], 27.8 µM; in [9], 31 µM; in [10], 29.7 µM; in assay [11], 38.9 µM; in assay [12], more than 100 µM. In addition, the TGI is 29.8 µM in [13]; 6.3 µM in [14]; 38.6 µM in assay [15]; more than 100 µM in assay [16]; 43.8 µM in assay [17]; 26.4 µM in assay [18]. Also, the TGI in assay [19] worked out at 29.7 µM; in assay [20], 21.4 µM.

Consider `COc1ccc2nc3cccc([N+](=O)[O-])c3c(NCCC(=O)O)c2c1`, for which the TGI in assay [1], in [2], in assay [3], in assay [4], in [5] and in assay [6] was more than 10 µM in each case. Besides, the TGI in assay [7], in [8], in [9], in assay [10], in [11] and in assay [12] was more than 10 µM throughout. Further, the TGI in assay [13], in assay [14], in [15], in assay [16], in [17] and in assay [18] was more than 10 µM in each case. Also, the TGI in assay [19] and in assay [20] was more than 10 µM each time.

For `O=C(c1ccccc1)c1ccc(N2C(=O)/C(=C/c3cccc(Oc4ccccc4)c3)N=C2c2ccccc2)c(N2C(=O)/C(=C/c3cccc(Oc4ccccc4)c3)N=C2c2ccccc2)c1`, the TGI is more than 100 µM in [1]; more than 100 µM in assay [2]; more than 100 µM in assay [3]; 69.8 µM in assay [4]; more than 100 µM in [5]; 71.2 µM in [6]. In addition, the TGI was more than 100 µM in assay [7]; more than 100 µM in assay [8]; more than 100 µM in [9]; 79.4 µM in assay [10]; 51 µM in assay [12]; 31.5 µM in assay [13]. For the same compound, the TGI in [14], in assay [15], in assay [16], in assay [17], in assay [18] and in assay [19] was more than 100 µM throughout. The TGI in assay [20] is more than 100 µM.

As to `Nc1ccc(-c2nc3ccccc3s2)cc1CO`, the TGI in assay [1], in assay [2], in assay [3], in assay [4], in assay [5] and in assay [6] was more than 100 µM throughout. For the same compound, the TGI in [7], in assay [8], in assay [9], in assay [10], in assay [12] and in assay [13] was more than 100 µM each time. The TGI in assay [14] was more than 100 µM; in assay [15], more than 90.4 µM; in assay [16], more than 100 µM; in assay [17] it was more than 100 µM; in assay [18], more than 100 µM; in assay [19] it was more than 49.2 µM. In addition, in assay [20], the TGI is more than 100 µM.

Consider `CCOC(=O)/C(=C\c1c[nH]c2ccccc12)P(=O)(OCC)OCC`, for which the TGI in assay [1] is more than 100 µM; in assay [2], 75.6 µM; in assay [3], more than 100 µM; in [4], 59.9 µM; in [5], more than 100 µM; in [7], 77.1 µM. Besides, the TGI in [8] is 66.6 µM; in assay [9] it was 62.7 µM; in assay [10], more than 100 µM; in assay [11], 77.5 µM; in assay [12] it was 89.9 µM; in assay [13], more than 100 µM. Also, the TGI in assay [14] was 66.9 µM; in assay [15], more than 100 µM; in assay [16] it was more than 100 µM; in [17], 71.5 µM; in assay [18], more than 100 µM; in [19], more than 100 µM. This compound came in with a TGI in [20] of 77.5 µM.
